Results reported in ChEMBL document CHEMBL5506024, “Multitarget μ-Opioid Receptor Agonists─Neuropeptide FF Receptor Antagonists Induce Potent Antinociception with Reduced Adverse Side Effects” (J Med Chem, 2024).
pKi: −log10 of the molar value. Calls of active or inactive are those of the source.

Key:
[1] = Induction of naltrexone-precipitated withdrawal syndrome in sc dosed C57BL/6N mouse assessed as somatic signs administered for 8 days followed by naltrexone addition on day 9 after 2 hrs post last dose and measured after 30 mins; type: toxicity, organism-based; conditions: in vivo, 216.5 h, time 12990 min
[2] = Induction of naltrexone-precipitated withdrawal syndrome in sc dosed C57BL/6N mouse assessed as vegetative signs administered for 8 days followed by naltrexone addition on day 9 after 2 hrs post last dose and measured after 30 mins; type: toxicity, organism-based; conditions: in vivo, 216.5 h, time 12990 min
Mus musculus [3] = experiment: Antinociceptive activity in mouse at 10 mg/kg, sc measured after 6 hrs in presence of naloxone methiodide by tail immersion test; type: functional, organism-based
Mus musculus [4] = experiment: Antinociceptive activity in mouse at 4.2 umol/kg, sc measured after 6 hrs in presence of naloxone methiodide by tail immersion test; type: functional, organism-based; conditions: dose 4.2 µmol/kg
Mus musculus [5] = experiment: Antinociceptive activity in mouse at 10 mg/kg, sc administered daily and measured on day 8; type: functional, organism-based
[6] = Toxicity in sc dosed C57BL/6N mouse assessed as induction of respiratory depression by measuring decrease in pulmonary rate by plethysmography; type: organism-based; conditions: in vivo
Mus musculus [7] = experiment: Antinociceptive activity in mouse assessed as basal nociceptive threshold at 10 mg/kg, sc administered daily and measured on day 2 to 7; type: functional, organism-based
[8] = target: Kappa-type opioid receptor (Homo sapiens, UniProt P41145); experiment: Partial agonist activity at human KOR expressed in HEK293 cells assessed as forskolin-induced cAMP accumulation in presence of IBMX; type: functional, cell-based; conditions: filed as partial agonist
[9] = target: T1, Neuropeptide FF receptor 2 (Homo sapiens, UniProt Q9Y5X5); experiment: Displacement of [125I]-1DMeNPFF from human NPFFR2 expressed in CHO cell membrane at 0.05 uM incubated for 1 hr by Topcount counting method relative to control; type: cell membranes; conditions: filed as antagonist
[10] = target: T2, Neuropeptide FF receptor 1 (Homo sapiens, UniProt Q9GZQ6); experiment: Displacement of [125I]-1DMeNPFF from human NPFFR1 expressed in CHO cell membrane at 0.5 uM incubated for 1 hr by Topcount counting method relative to control; type: cell membranes
[11] = target: T3, Prolactin-releasing peptide receptor (Homo sapiens) (UniProt P49683); experiment: Agonist activity at human GPR10 expressed in CHO cells assessed as intracellular calcium release upto 10 uM by Fluo-4 AM dye based calcium mobilization assay; type: functional, cell-based
T3 sequence (whole entry): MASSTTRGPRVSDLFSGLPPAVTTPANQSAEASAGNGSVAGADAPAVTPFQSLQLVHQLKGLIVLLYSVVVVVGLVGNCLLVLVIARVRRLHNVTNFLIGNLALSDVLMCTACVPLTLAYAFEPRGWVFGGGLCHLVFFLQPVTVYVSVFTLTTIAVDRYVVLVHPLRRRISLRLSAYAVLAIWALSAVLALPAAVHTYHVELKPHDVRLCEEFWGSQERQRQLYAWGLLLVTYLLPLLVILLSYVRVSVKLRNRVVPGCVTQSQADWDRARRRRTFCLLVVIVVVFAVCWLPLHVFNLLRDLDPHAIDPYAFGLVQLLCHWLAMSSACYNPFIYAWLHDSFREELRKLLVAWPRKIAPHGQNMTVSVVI

[12] = target: Delta-type opioid receptor (Homo sapiens) (UniProt P41143); experiment: Agonist activity at human DOP expressed in HEK293 cells assessed as inhibition of forskolin-induced cAMP accumulation; type: functional, cell-based; conditions: filed as agonist
[13] = target: T2, Neuropeptide FF receptor 1; experiment: Displacement of [125I]-1DMeNPFF from human NPFFR1 expressed in CHO cell membrane incubated for 1 hr by Topcount counting method; type: cell membranes
[14] = target: T4, Pyroglutamylated RF-amide peptide receptor (Homo sapiens) (UniProt Q96P65); experiment: Antagonist activity at human GPR103 expressed in CHO cells assessed as intracellular calcium release upto 10 uM by Fluo-4 AM dye based calcium mobilization assay; type: functional, cell-based
T4 sequence (whole entry): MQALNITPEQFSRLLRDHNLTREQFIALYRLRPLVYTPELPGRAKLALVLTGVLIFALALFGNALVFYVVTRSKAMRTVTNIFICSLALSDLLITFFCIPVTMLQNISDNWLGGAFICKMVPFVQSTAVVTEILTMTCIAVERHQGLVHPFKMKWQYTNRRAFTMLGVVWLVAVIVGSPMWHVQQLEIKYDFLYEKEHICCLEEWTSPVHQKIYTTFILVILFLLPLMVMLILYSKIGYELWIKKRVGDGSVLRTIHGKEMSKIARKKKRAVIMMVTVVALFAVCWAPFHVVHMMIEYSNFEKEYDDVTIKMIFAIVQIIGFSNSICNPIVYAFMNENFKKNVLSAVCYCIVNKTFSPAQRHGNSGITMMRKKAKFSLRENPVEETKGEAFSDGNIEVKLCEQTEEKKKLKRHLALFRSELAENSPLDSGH

Mus musculus [15] = experiment: Antinociceptive activity in mouse at 2.5 to 10 mg/kg, sc measured after 6 hrs by tail immersion test; type: functional, organism-based; conditions: dose 2.5-10 mg/kg
[16] = target: T4, Pyroglutamylated RF-amide peptide receptor (Homo sapiens); experiment: Agonist activity at human GPR103 expressed in CHO cells assessed as intracellular calcium release upto 10 uM by Fluo-4 AM dye based calcium mobilization assay; type: functional, cell-based
Mu-type opioid receptor [17] = target: T5, Mu-type opioid receptor (Homo sapiens, UniProt P35372); experiment: Agonist activity at human MOP expressed in HEK293 cells coexpressing GloSensor-20F assessed as inhibition of forskolin-induced cAMP accumulation relative to control; type: functional, cell-based; conditions: filed as agonist
Mu-type opioid receptor [18] = target: T5, Mu-type opioid receptor; experiment: Agonist activity at human Rluc8-tagged MOP expressed in HEK293 cells coexpressing eYFP-tagged beta-arrestin-2 assessed as beta-arrestin-2 recruitment incubated for 5 mins by luminometer analysis; type: functional, cell-based; conditions: hek293
[19] = Drug concentration in mouse plasma at 10 mg/kg, sc measured after 2 hrs by LC-MS/MS analysis; type: ADME, organism-based
[20] = target: Nociceptin receptor (Homo sapiens) (UniProt P41146); experiment: Partial agonist activity at human NOR expressed in HEK293 cells assessed as forskolin-induced cAMP accumulation in presence of IBMX; type: functional, cell-based; conditions: filed as partial agonist
[21] = target: T1, Neuropeptide FF receptor 2; experiment: Displacement of [125I]-1DMeNPFF from human NPFFR2 expressed in CHO cell membrane incubated for 1 hr by Topcount counting method; type: cell membranes
[22] = target: KiSS-1 receptor (Homo sapiens) (UniProt Q969F8); experiment: Antagonist activity at human GPR54 expressed in CHO cells assessed as intracellular calcium release upto 10 uM by Fluo-4 AM dye based calcium mobilization assay; type: functional, cell-based
[23] = Half life in mouse at 10 mg/kg, sc measured upto 24 hrs by LC-MS/MS analysis; type: ADME, organism-based; conditions: in vivo
[24] = Cmax in mouse at 10 mg/kg, sc measured upto 24 hrs by LC-MS/MS analysis; type: ADME, organism-based; conditions: in vivo
[25] = target: T1, Neuropeptide FF receptor 2; experiment: Antagonist activity at human NPFFR2 expressed in CHO cell membrane assessed as inhibition of NPVF induced cAMP response at 5 uM incubated for 1 hr by Topcount counting method relative to control; type: functional, cell membranes; parameters: scale not given: the % may be the effect or the level left; conditions: filed as antagonist
[26] = target: KiSS-1 receptor (Homo sapiens) (UniProt Q969F8); experiment: Agonist activity at human GPR54 expressed in CHO cells assessed as intracellular calcium release upto 10 uM by Fluo-4 AM dye based calcium mobilization assay; type: functional, cell-based
[27] = target: T2, Neuropeptide FF receptor 1; experiment: Antagonist activity at human NPFFR1 expressed in CHO cell membrane assessed as inhibition of NPVF induced cAMP response at 5 uM incubated for 1 hr by Topcount counting method relative to control; type: functional, cell membranes; parameters: scale not given: the % may be the effect or the level left
[28] = target: T3, Prolactin-releasing peptide receptor (Homo sapiens); experiment: Antagonist activity at human GPR10 expressed in CHO cells assessed as intracellular calcium release upto 10 uM by Fluo-4 AM dye based calcium mobilization assay; type: functional, cell-based
[29] = Tmax in mouse at 10 mg/kg, sc measured upto 24 hrs by LC-MS/MS analysis; type: ADME, organism-based; conditions: in vivo
[30] = target: T1, Neuropeptide FF receptor 2; experiment: Antagonist potency at human NPFFR2 expressed in CHO cell membrane assessed as inhibition of NPVF induced cAMP response incubated for 1 hr by Topcount counting method; type: functional, cell membranes; conditions: read-out: pA2 (converted)
[31] = target: T2, Neuropeptide FF receptor 1; experiment: Antagonist potency at human NPFFR1 expressed in CHO cell membrane assessed as inhibition of NPVF induced cAMP response incubated for 1 hr by Topcount counting method; type: functional, cell membranes; conditions: read-out: pA2 (converted)

T1 sequence (Q9Y5X5 whole entry): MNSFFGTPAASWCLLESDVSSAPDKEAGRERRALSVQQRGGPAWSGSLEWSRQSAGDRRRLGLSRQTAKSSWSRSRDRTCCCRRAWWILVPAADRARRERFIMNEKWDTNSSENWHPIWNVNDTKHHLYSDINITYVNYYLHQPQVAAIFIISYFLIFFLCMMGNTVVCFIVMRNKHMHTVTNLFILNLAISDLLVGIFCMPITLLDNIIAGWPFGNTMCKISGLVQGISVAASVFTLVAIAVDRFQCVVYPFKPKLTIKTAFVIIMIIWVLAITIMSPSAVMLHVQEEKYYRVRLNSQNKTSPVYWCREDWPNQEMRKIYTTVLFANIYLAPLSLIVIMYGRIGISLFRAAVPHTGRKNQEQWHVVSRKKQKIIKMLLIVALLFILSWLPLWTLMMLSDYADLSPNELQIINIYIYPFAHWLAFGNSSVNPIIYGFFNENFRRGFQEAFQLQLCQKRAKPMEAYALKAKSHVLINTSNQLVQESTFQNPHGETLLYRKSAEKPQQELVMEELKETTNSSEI
T2 sequence (Q9GZQ6 whole entry): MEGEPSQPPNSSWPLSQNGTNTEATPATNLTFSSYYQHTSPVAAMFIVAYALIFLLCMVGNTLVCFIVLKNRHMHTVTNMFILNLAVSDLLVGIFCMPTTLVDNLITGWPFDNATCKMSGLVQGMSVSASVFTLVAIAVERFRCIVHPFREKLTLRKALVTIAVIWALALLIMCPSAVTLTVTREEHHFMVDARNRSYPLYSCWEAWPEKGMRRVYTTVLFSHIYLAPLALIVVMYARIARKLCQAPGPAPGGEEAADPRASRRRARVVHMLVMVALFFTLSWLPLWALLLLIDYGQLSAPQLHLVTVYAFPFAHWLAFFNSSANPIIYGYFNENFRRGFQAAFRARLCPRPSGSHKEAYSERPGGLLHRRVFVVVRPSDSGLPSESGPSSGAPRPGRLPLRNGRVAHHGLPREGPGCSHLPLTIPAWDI
T5 sequence (P35372 whole entry): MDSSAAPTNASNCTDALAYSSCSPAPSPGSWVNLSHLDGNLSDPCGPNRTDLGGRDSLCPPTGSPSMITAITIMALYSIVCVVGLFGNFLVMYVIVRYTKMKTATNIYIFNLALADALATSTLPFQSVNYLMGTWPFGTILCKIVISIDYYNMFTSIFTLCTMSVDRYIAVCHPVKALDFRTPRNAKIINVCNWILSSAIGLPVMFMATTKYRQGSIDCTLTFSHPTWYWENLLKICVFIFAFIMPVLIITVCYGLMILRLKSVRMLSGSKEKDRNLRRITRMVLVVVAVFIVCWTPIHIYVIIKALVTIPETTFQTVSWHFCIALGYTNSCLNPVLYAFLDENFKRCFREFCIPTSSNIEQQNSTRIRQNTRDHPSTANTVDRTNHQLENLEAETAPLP
Chain of KiSS-1 receptor (Homo sapiens) (Q969F8 whole entry): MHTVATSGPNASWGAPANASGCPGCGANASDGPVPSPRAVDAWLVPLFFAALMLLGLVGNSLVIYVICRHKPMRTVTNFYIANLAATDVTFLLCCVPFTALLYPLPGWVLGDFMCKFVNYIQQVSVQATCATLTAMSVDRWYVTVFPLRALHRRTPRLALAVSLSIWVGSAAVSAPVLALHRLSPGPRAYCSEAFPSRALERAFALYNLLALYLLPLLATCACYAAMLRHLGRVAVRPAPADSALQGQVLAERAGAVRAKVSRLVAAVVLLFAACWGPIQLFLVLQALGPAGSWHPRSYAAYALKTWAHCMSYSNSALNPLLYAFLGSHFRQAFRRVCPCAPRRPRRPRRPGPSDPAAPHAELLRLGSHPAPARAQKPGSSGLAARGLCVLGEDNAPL
Chain of Delta-type opioid receptor (Homo sapiens) (P41143 whole entry): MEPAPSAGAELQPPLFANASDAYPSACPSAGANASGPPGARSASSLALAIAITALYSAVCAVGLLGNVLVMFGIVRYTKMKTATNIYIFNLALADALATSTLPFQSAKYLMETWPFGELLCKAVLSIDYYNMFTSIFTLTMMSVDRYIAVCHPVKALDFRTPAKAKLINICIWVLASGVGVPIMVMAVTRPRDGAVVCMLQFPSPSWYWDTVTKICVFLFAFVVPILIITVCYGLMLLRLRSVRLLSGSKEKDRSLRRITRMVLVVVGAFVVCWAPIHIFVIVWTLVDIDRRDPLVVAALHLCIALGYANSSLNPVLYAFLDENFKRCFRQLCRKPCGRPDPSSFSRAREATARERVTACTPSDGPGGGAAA
Chain of Nociceptin receptor (Homo sapiens) (P41146 whole entry): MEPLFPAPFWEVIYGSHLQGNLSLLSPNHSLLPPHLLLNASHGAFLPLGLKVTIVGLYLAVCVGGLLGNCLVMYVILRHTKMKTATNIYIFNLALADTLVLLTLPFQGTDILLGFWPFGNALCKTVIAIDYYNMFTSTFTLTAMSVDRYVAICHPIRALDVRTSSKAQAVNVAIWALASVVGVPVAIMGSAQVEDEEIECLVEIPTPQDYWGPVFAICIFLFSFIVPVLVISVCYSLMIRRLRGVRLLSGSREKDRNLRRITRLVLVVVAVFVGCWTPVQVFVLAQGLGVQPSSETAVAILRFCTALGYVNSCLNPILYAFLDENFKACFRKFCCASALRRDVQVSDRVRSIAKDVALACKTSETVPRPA
Chain of Kappa-type opioid receptor (P41145 whole entry): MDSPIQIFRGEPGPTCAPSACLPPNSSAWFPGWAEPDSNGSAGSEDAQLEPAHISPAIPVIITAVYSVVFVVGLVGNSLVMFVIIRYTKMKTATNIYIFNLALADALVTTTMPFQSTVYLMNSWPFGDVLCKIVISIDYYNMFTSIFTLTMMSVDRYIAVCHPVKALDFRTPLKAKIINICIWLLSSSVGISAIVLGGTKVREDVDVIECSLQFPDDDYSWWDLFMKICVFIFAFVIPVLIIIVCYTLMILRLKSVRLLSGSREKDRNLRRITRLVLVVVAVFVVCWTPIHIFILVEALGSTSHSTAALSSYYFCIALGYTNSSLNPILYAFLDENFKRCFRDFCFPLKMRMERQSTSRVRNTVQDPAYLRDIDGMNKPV

CN1CC[C@]23c4c5ccc(O)c4O[C@H]2[C@@H](O)C=C[C@H]3[C@H]1C5 [MORPHINE]
Activity [1]: Toxic | Activity [2]: Toxic | Activity (Mus musculus [3]): inactive | Activity (Mus musculus [4]): inactive | Activity (Mus musculus [5]): inactive | Activity [6]: Dose-Dependent Effect | Activity (Mus musculus [7]): inactive

Cc1cc(O)cc(C)c1C[C@H](N)C(=O)N(C)[C@H](C)C(=O)N[C@H]1Cc2c(ccc3ccccc23)CN(CC(=O)N[C@@H](CCCN2CCC(Cc3ccccc3)CC2)C(=O)N[C@@H](Cc2ccccc2)C(N)=O)C1=O
Activity [8]: Active | Activity [9]: 51% | Activity [10]: 22% | Activity [11]: inactive | Activity [12]: Active | pKi [13]: 5.93 | Activity [14]: inactive | Activity (Mus musculus [15]): Active | Activity [16]: inactive | Emax (Mu-type opioid receptor [17]): 73% | EC50 (Mu-type opioid receptor [18]): Not Active | concentration at 2 h [19]: 474 nM | Activity [20]: Active | pKi [21]: 7.27 | Activity [22]: inactive | half-life [23]: 3.88 h | Cmax [24]: 446 nM | Activity [25]: 80% | Activity [26]: inactive | Activity [27]: 3% | Activity [28]: inactive | Tmax [29]: 1.83 h | Kb [30]: 102 nM | Kb [31]: 5890 nM
